# Test results published in the supplement of paper PMC10307832.
# Compound: CC(C)N(CCCNC(=O)Nc1ccc(C(C)(C)C)cc1)C[C@H]1O[C@@H](n2ccc3c(N)ncnc32)[C@H](O)[C@@H]1O + NC(=O)Nc1cc(-c2cccc(F)c2)sc1C(=O)N[C@H]1CCCNC1 [AZD7762] (partner 0.2 µM)
# Assay: relative viability (nuclei count vs DMSO), 5 days (fraction); higher = more cells survive
# Settings: first compound 0.08 µM
# Summary of the method: (§1)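 Dosing by pin tool came one day after lung cancer cell lines were seeded in 1536-well plates, using either one drug or a fixed anchor-drug dose plus five library-drug doses (not always all listed) in √10 steps. After 5 days, nuclei were counted on 4× images. Relative viability is treated-well nuclei count divided by vehicle-well nuclei count, and values are medians of duplicate plates.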
row,Cell Line,relative viability
1,NCI-H1915,0.674
2,HCC-827,0.259
3,LXF-289,1.1
4,NCI-H2347,0.795
5,NCI-H1651,0.545
6,EPLC-272H,0.262
7,NCI-H23,0.252
8,NCI-H1792,0.68
9,NCI-H1355,0.703
10,NCI-H322M,0.529
11,NCI-H1437,1.13
12,NCI-H1755,0.473
13,NCI-H2085,0.979
14,HCC-15,1.24
15,NCI-H1793,0.614
16,RERF-LC-KJ,1.09
17,EKVX,0.7
18,LC-2-ad,0.834
19,NCI-H1944,0.678
20,NCI-H1975,0.701

# Same assay, conditions: first compound 0.253 µM
row,Cell Line,relative viability
1,LU99A,0.316
2,BEN,0.746
3,HARA,0.244
4,HCC-78,0.519
5,NCI-H441,1.13
6,LCLC-97TM1,0.266
7,A-427,0.682
8,NCI-H460,0.58
9,NCI-H838,0.909
10,NCI-H1734,0.441
11,NCI-H596,0.943
12,NCI-H2405,0.817
13,NCI-H1395,0.412
14,201T,0.554
15,NCI-H1915,0.726
16,HCC-827,0.252

row,Cell Line,relative viability
1,LXF-289,1.1
2,NCI-H2347,0.815
3,NCI-H1651,0.562
4,EPLC-272H,0.238
5,NCI-H1355,0.68
6,NCI-H322M,0.541
7,NCI-H1437,1.06
8,NCI-H1755,0.401
9,NCI-H2085,0.766
10,HCC-15,1.35
11,RERF-LC-KJ,0.954
12,EKVX,0.716
13,LC-2-ad,0.802
14,NCI-H1944,0.415
15,NCI-H1975,0.686

# Same assay, conditions: first compound 0.8 µM
row,Cell Line,relative viability
1,LU99A,0.421
2,BEN,0.716
3,HARA,0.334
4,HCC-78,0.583
5,LCLC-97TM1,0.354
6,A-427,0.735
7,NCI-H460,0.605
8,NCI-H838,0.912
9,NCI-H1734,0.634
10,NCI-H596,0.926
11,NCI-H2405,0.689
12,NCI-H1395,0.42
13,NCI-H1915,0.607
14,HCC-827,0.403
15,LXF-289,1.09
16,NCI-H2347,0.605
17,NCI-H1651,0.468
18,EPLC-272H,0.21
19,NCI-H23,0.226
20,NCI-H1792,0.46
21,NCI-H1355,0.642
22,NCI-H322M,0.751
23,NCI-H1437,1.15
24,NCI-H1755,0.44
25,NCI-H2085,0.921
26,NCI-H1793,0.386
27,RERF-LC-KJ,0.867
28,EKVX,0.702
29,LC-2-ad,0.677
30,NCI-H1944,0.537

# Same assay, conditions: first compound 2.53 µM
row,Cell Line,relative viability
1,LU99A,0.473
2,BEN,0.598
3,HARA,0.655
4,HCC-78,0.576
5,NCI-H441,1.07
6,LCLC-97TM1,0.235
7,A-427,0.699
8,NCI-H460,0.499
9,NCI-H838,0.806
10,NCI-H1734,0.565
11,NCI-H596,1.23
12,NCI-H2405,0.844
13,NCI-H1395,0.421
14,201T,0.56
15,NCI-H1915,0.668
16,HCC-827,0.203
17,LXF-289,1.12

row,Cell Line,relative viability
1,NCI-H2347,0.803
2,NCI-H1651,0.46
3,EPLC-272H,0.259
4,NCI-H23,0.201
5,NCI-H1792,0.569
6,NCI-H1355,0.75
7,NCI-H322M,0.51
8,NCI-H1437,1.07
9,NCI-H1755,0.444
10,NCI-H2085,1.08
11,HCC-15,0.95
12,NCI-H1793,0.437
13,RERF-LC-KJ,0.981
14,EKVX,0.767
15,LC-2-ad,0.787
16,NCI-H1944,0.559
17,NCI-H1975,0.642

# Same assay, conditions: first compound 8 µM
row,Cell Line,relative viability
1,LU99A,0.317
2,BEN,0.795
3,HARA,0.299
4,HCC-78,0.64
5,NCI-H441,1.33
6,LCLC-97TM1,0.147
7,A-427,0.711
8,NCI-H460,0.585
9,NCI-H838,0.95
10,NCI-H1734,0.466
11,NCI-H596,1.09
12,NCI-H2405,0.699
13,NCI-H1395,0.38
14,201T,0.622
15,NCI-H1915,0.56
16,HCC-827,0.242
17,LXF-289,1

row,Cell Line,relative viability
1,NCI-H2347,0.746
2,NCI-H1651,0.457
3,EPLC-272H,0.35
4,NCI-H23,0.305
5,NCI-H1792,0.601
6,NCI-H1355,0.695
7,NCI-H322M,0.803
8,NCI-H1437,1.14
9,NCI-H1755,0.426
10,NCI-H2085,1
11,HCC-15,1.28
12,NCI-H1793,0.426
13,RERF-LC-KJ,0.84
14,EKVX,0.621
15,LC-2-ad,0.771
16,NCI-H1944,0.575
17,NCI-H1975,0.53

# Compound: CC(C)N(CCCNC(=O)Nc1ccc(C(C)(C)C)cc1)C[C@H]1O[C@@H](n2ccc3c(N)ncnc32)[C@H](O)[C@@H]1O + Nc1ncn([C@H]2C[C@H](O)[C@@H](CO)O2)c(=O)n1 [Decitabine] (partner 2 µM)
# Assay: as above
# Settings: first compound 0.08 µM
# Summary of the method: as §1
row,Cell Line,relative viability
1,LU99A,0.802
2,BEN,0.602
3,HARA,0.556
4,HCC-78,0.783
5,NCI-H441,0.278
6,LCLC-97TM1,0.215
7,A-427,0.556
8,NCI-H460,0.484
9,NCI-H838,0.454
10,NCI-H1734,0.454
11,NCI-H596,1.03
12,NCI-H2405,0.723
13,NCI-H1395,0.711
14,201T,0.841
15,NCI-H1915,0.274
16,HCC-827,0.322
17,LXF-289,0.329

row,Cell Line,relative viability
1,NCI-H2347,0.529
2,NCI-H1651,0.611
3,EPLC-272H,0.366
4,NCI-H23,0.311
5,NCI-H1792,0.527
6,NCI-H1355,0.338
7,NCI-H322M,0.698
8,NCI-H1437,0.563
9,NCI-H1755,0.787
10,NCI-H2085,0.55
11,HCC-15,0.655
12,NCI-H1793,0.481
13,RERF-LC-KJ,0.703
14,EKVX,0.342
15,LC-2-ad,0.776
16,NCI-H1944,0.451
17,NCI-H1975,0.367

# Same assay, conditions: first compound 0.253 µM
row,Cell Line,relative viability
1,LU99A,0.92
2,BEN,0.596
3,HARA,0.545
4,HCC-78,0.667
5,NCI-H441,0.251
6,LCLC-97TM1,0.305
7,A-427,0.535
8,NCI-H460,0.488
9,NCI-H838,0.431
10,NCI-H1734,0.495
11,NCI-H596,0.975
12,NCI-H2405,0.748
13,NCI-H1395,0.704
14,201T,0.889
15,NCI-H1915,0.289
16,HCC-827,0.325

row,Cell Line,relative viability
1,LXF-289,0.39
2,NCI-H2347,0.688
3,NCI-H1651,0.534
4,EPLC-272H,0.381
5,NCI-H1355,0.342
6,NCI-H322M,0.695
7,NCI-H1437,0.569
8,NCI-H1755,0.701
9,NCI-H2085,0.486
10,HCC-15,0.592
11,RERF-LC-KJ,0.685
12,EKVX,0.339
13,LC-2-ad,0.857
14,NCI-H1944,0.438
15,NCI-H1975,0.44

# Same assay, conditions: first compound 0.8 µM
row,Cell Line,relative viability
1,LU99A,0.895
2,BEN,0.739
3,HARA,0.62
4,HCC-78,0.667
5,LCLC-97TM1,0.243
6,A-427,0.568
7,NCI-H460,0.455
8,NCI-H838,0.491
9,NCI-H1734,0.463
10,NCI-H596,1.03
11,NCI-H2405,0.741
12,NCI-H1395,0.76
13,NCI-H1915,0.269
14,HCC-827,0.315
15,LXF-289,0.396
16,NCI-H2347,0.616

row,Cell Line,relative viability
1,NCI-H1651,0.589
2,EPLC-272H,0.368
3,NCI-H23,0.327
4,NCI-H1792,0.56
5,NCI-H1355,0.414
6,NCI-H322M,0.723
7,NCI-H1437,0.619
8,NCI-H1755,0.666
9,NCI-H2085,0.561
10,HCC-15,0.65
11,NCI-H1793,0.77
12,RERF-LC-KJ,0.715
13,EKVX,0.327
14,LC-2-ad,0.688
15,NCI-H1944,0.471
16,NCI-H1975,0.273

# Same assay, conditions: first compound 2.53 µM
row,Cell Line,relative viability
1,LU99A,0.919
2,BEN,0.717
3,HARA,0.457
4,HCC-78,0.707
5,NCI-H441,0.218
6,LCLC-97TM1,0.242
7,A-427,0.541
8,NCI-H460,0.435
9,NCI-H838,0.483
10,NCI-H1734,0.545
11,NCI-H596,1.19
12,NCI-H2405,0.745
13,NCI-H1395,0.748
14,201T,0.876
15,NCI-H1915,0.25
16,HCC-827,0.304
17,LXF-289,0.378

row,Cell Line,relative viability
1,NCI-H2347,0.664
2,NCI-H1651,0.611
3,EPLC-272H,0.413
4,NCI-H23,0.298
5,NCI-H1792,0.529
6,NCI-H1355,0.335
7,NCI-H322M,0.689
8,NCI-H1437,0.553
9,NCI-H1755,0.668
10,NCI-H2085,0.542
11,HCC-15,0.646
12,NCI-H1793,0.537
13,RERF-LC-KJ,0.639
14,EKVX,0.36
15,LC-2-ad,0.728
16,NCI-H1944,0.394
17,NCI-H1975,0.354

# Same assay, conditions: first compound 8 µM
row,Cell Line,relative viability
1,LU99A,0.991
2,BEN,0.678
3,HARA,0.495
4,HCC-78,0.777
5,NCI-H441,0.252
6,LCLC-97TM1,0.194
7,A-427,0.568
8,NCI-H460,0.414
9,NCI-H838,0.511
10,NCI-H1734,0.484
11,NCI-H596,0.988
12,NCI-H2405,0.708
13,NCI-H1395,0.662
14,201T,0.844
15,NCI-H1915,0.267
16,HCC-827,0.38
17,LXF-289,0.336

row,Cell Line,relative viability
1,NCI-H2347,0.432
2,NCI-H1651,0.539
3,EPLC-272H,0.39
4,NCI-H23,0.331
5,NCI-H1792,0.607
6,NCI-H1355,0.342
7,NCI-H322M,0.641
8,NCI-H1437,0.592
9,NCI-H1755,0.714
10,NCI-H2085,0.546
11,HCC-15,0.544
12,NCI-H1793,0.359
13,RERF-LC-KJ,0.693
14,EKVX,0.351
15,LC-2-ad,0.768
16,NCI-H1944,0.423
17,NCI-H1975,0.376
